Drawing on US3936439A, “2,6-Diaminonebularine derivatives” (Takeda Chemical Industries, Ltd., priority 1972, dated 1976), this text covers Maximum coronary flow and inhibition for 6 molecules.

Where two headings read alike, the source gives them in different places.

One test deals with coronary artery. In words: Test for coronary dilating action (intracoronary administration, coronary blood flow in anaesthetized dogs). It is filed as in vivo. The conditions noted are these: 10 μg./dog directly into the coronary artery, potency of adenosine taken as unity. How it is done:
Each of dogs weighing 7 to 17 kilograms was anaesthetized with pentobarbital sodium salt (30 mg./kg., intravenously) and under supportive respiration, a left thoractomy was performed at the fifth interspace.
The heart of each animal was exposed and perfused with the blood guided from the animal's own left carotid artery to the left coronary artery circumflex through a polyethylene catheter. The coronary blood flow was measured with an electromagnetic flowmeter interposed in the external phase of the circuitry.
Each of the test compounds was administered directly into the coronary artery through the polyethylene catheter at a dose of 10 μg./dog. The potency of each compound was expressed with the potency of adenosine being taken as unity.

A further test concerns rat platelets. Put plainly: Test for the action to inhibit the aggregation of rat platelets caused by adenosine-5'-diphosphate (method of Born and Cross). The format is cell-based. The conditions noted are these: read-out: Inhibitory action (%). The text has this: Test for the action to inhibit the aggregation of rat platelets caused by adenosine-5'-diphosphate
Where [1] appears, read: rat platelet-rich plasma, ADP-induced aggregation, concentration 15 μg/ml.
[2] abbreviates: rat platelet-rich plasma, ADP-induced aggregation, concentration 74 μg/ml.
Where [3] appears, read: rat platelet-rich plasma, ADP-induced aggregation, concentration 370 μg/ml.

In the test on coronary artery, `CCNc1nc(N)c2ncn([C@@H]3O[C@H](CO)[C@@H](O)[C@H]3O)c2n1` [N^2 -Ethyl-2,6-diaminonebularine, N^2-ethyl-2,6-diaminonebularine] showed a Maximum coronary flow of 0.91. The inhibition at 15 µg/mL in the test on rat platelets (setting [1]) was -11%. For the same molecule, the inhibition at 74 µg/mL in the test with rat platelets (setting [2]) is -21%. The inhibition at 370 µg/mL in the test with rat platelets (setting [3]) is -40%.

In the test with coronary artery, `Nc1ncnc2c1ncn2[C@@H]1O[C@H](CO)[C@@H](O)[C@H]1O` [Adenosine] gave a Maximum coronary flow of 1.00. Besides, in the test on rat platelets (Rattus norvegicus, Platelet), the inhibition at 15 µg/mL stood at 0%, the inhibition at 74 µg/mL came out at 0% and the inhibition at 370 µg/mL came to 0%.

In the test on coronary artery, `Nc1nc(Nc2ccccc2)nc2c1ncn2[C@@H]1O[C@H](CO)[C@@H](O)[C@H]1O` [N^2 -Phenyl-2,6-diaminonebularine, N^2-phenyl-2,6-diaminonebularine] gave a Maximum coronary flow of 6.75. In addition, in the test with rat platelets (setting [1]), the inhibition at 15 µg/mL is -38%. Also, the inhibition at 74 µg/mL in the test with rat platelets (setting [2]) was -52%. For the same molecule, the inhibition at 370 µg/mL in the test on rat platelets (setting [3]) is -85%.

Regarding `COc1ccc(Nc2nc(N)c3ncn([C@@H]4O[C@H](CO)[C@@H](O)[C@H]4O)c3n2)cc1` [N^2-(p-methoxyphenyl)-2,6-diaminonebularine], the Maximum coronary flow in the test on coronary artery stood at 2.37.

`Nc1nc(NC2CCCCC2)nc2c1ncn2[C@@H]1O[C@H](CO)[C@@H](O)[C@H]1O` [N^2 -Cyclohexyl-2,6-diaminonebularine, N^2-cyclohexyl-2,6-diaminonebularine]: the Maximum coronary flow in the test on coronary artery is 2.20. Besides, the inhibition at 15 µg/mL with rat platelets (setting [1]) was -32%. For the same molecule, in the test with rat platelets (setting [2]), the inhibition at 74 µg/mL is -60%. In addition, in the test on rat platelets (setting [3]), the inhibition at 370 µg/mL is -95%.

As to `Nc1nc(N)c2ncn([C@@H]3O[C@H](CO)[C@@H](O)[C@H]3O)c2n1` [2,6-Diaminonebularine, 2,6-diaminonebularine], in the test on coronary artery, the Maximum coronary flow came out at 0.50. Besides, the inhibition at 15 µg/mL in the test with rat platelets (setting [1]) is 0%. The inhibition at 74 µg/mL in the test on rat platelets (setting [2]) worked out at 0%. In the test with rat platelets (setting [3]), the inhibition at 370 µg/mL came to 0%.
